In the supplement of paper PMC10627819:

Columns and labels:
Assay in all cases: fitness (endpoint OD595 vs no drug) (fraction); higher = more growth
[1] = test system: S. aureus DSM 20231
Procedure, shortened: (§1)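 Fitness expresses the optical density reached at the stationary-phase transition as a fraction of the robust mean of no-drug control wells. It is capped at 1. Measurements were OD595 every 30 min for 14 h at 37 °C after inoculation of 384-well plates at OD595 0.01 (30 µl, or 55 µl for S. pneumoniae), minus the first reading.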

[2] = test system: B. subtilis 168
Procedure, shortened: as §1

[3] = test system: S. pneumoniae D39V
Procedure, shortened: as §1

[4] = first compound 0.0475 µg/mL, partner 2 µg/mL
[5] = first compound 0.095 µg/mL, partner 2 µg/mL
[6] = first compound 0.19 µg/mL, partner 2 µg/mL
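Further: OD595 on entry to stationary phase over no-drug wells; at most 1.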

## CN(C)[C@@H]1C(O)=C(C(N)=O)C(=O)[C@@]2(O)C(O)=C3C(=O)c4c(O)ccc(Cl)c4[C@@](C)(O)[C@H]3C[C@@H]12 [Chlortetracycline] + COc1c(N2C[C@@H]3CCCN[C@@H]3C2)c(F)cc2c(=O)c(C(=O)O)cn(C3CC3)c12 [Moxifloxacin]
[1]; first compound 0.006 µg/mL, partner 0.0075 µg/mL, one replicate
  fitness: 0.729
[1]; first compound 0.006 µg/mL, partner 0.015 µg/mL, one replicate
  fitness: 0.719
[1]; first compound 0.006 µg/mL, partner 0.03 µg/mL, one replicate
  fitness: 0.621
[1]; first compound 0.012 µg/mL, partner 0.0075 µg/mL
  fitness: 0.558
[1]; first compound 0.012 µg/mL, partner 0.015 µg/mL
  fitness: 0.539
[1]; first compound 0.012 µg/mL, partner 0.03 µg/mL
  fitness: 0.604
[1]; first compound 0.012 µg/mL, partner 0.06 µg/mL, one replicate
  fitness: 0.659
[1]; first compound 0.012 µg/mL, partner 0.12 µg/mL, one replicate
  fitness: 0.548
[1]; first compound 0.024 µg/mL, partner 0.0075 µg/mL
  fitness: 0.193
[1]; first compound 0.024 µg/mL, partner 0.015 µg/mL
  fitness: 0.177
[1]; first compound 0.024 µg/mL, partner 0.06 µg/mL, one replicate
  fitness: 0.66
[1]; first compound 0.024 µg/mL, partner 0.12 µg/mL, one replicate
  fitness: 0.535
[1]; first compound 0.048 µg/mL, partner 0.0075 µg/mL
  fitness: 0.185
[1]; first compound 0.048 µg/mL, partner 0.015 µg/mL
  fitness: 0.172
[1]; first compound 0.048 µg/mL, partner 0.03 µg/mL
  fitness: 0.132
[1]; first compound 0.048 µg/mL, partner 0.06 µg/mL, one replicate
  fitness: 0.14
[1]; first compound 0.048 µg/mL, partner 0.12 µg/mL, one replicate
  fitness: 0.165
[2]; first compound 0.0475 µg/mL, partner 0.0312 µg/mL
  fitness: 0.0451
[2]; first compound 0.0475 µg/mL, partner 0.0625 µg/mL
  fitness: 0.0327
[2]; first compound 0.0475 µg/mL, partner 0.125 µg/mL
  fitness: 0.0439
[2]; [4]
  fitness: 0.0242
[2]; first compound 0.0475 µg/mL, partner 4 µg/mL
  fitness: 0.0248
[2]; first compound 0.0475 µg/mL, partner 8 µg/mL
  fitness: 0.0159
[2]; first compound 0.095 µg/mL, partner 0.0312 µg/mL
  fitness: 0.104
[2]; first compound 0.095 µg/mL, partner 0.0625 µg/mL
  fitness: 0.0278
[2]; first compound 0.095 µg/mL, partner 0.125 µg/mL
  fitness: 0.0296
[2]; [5]
  fitness: 0.0289
[2]; first compound 0.095 µg/mL, partner 4 µg/mL
  fitness: 0.0255
[2]; first compound 0.095 µg/mL, partner 8 µg/mL
  fitness: 0.0155
[2]; first compound 0.19 µg/mL, partner 0.0312 µg/mL
  fitness: 0.0533
[2]; first compound 0.19 µg/mL, partner 0.0625 µg/mL
  fitness: 0.0332
[2]; first compound 0.19 µg/mL, partner 0.125 µg/mL
  fitness: 0.0433
[2]; [6]
  fitness: 0.0261
[2]; first compound 0.19 µg/mL, partner 4 µg/mL
  fitness: 0.0247
[2]; first compound 0.19 µg/mL, partner 8 µg/mL
  fitness: 0.0129
[3]; first compound 0.012 µg/mL, partner 0.005 µg/mL
  fitness: 0.907
[3]; first compound 0.012 µg/mL, partner 0.01 µg/mL
  fitness: 0.923
[3]; first compound 0.012 µg/mL, partner 0.02 µg/mL
  fitness: 0.765
[3]; first compound 0.024 µg/mL, partner 0.005 µg/mL
  fitness: 0.863
[3]; first compound 0.024 µg/mL, partner 0.01 µg/mL
  fitness: 0.915
[3]; first compound 0.024 µg/mL, partner 0.02 µg/mL
  fitness: 0.844
[3]; first compound 0.048 µg/mL, partner 0.005 µg/mL
  fitness: 0.821
[3]; first compound 0.048 µg/mL, partner 0.01 µg/mL
  fitness: 0.871
[3]; first compound 0.048 µg/mL, partner 0.02 µg/mL
  fitness: 0.78
[3]; first compound 0.375 µg/mL, partner 0.0312 µg/mL
  fitness: 0.0285
[3]; first compound 0.375 µg/mL, partner 0.0625 µg/mL
  fitness: 0.0351
[3]; first compound 0.375 µg/mL, partner 0.125 µg/mL
  fitness: 0.0309
[3]; first compound 0.75 µg/mL, partner 0.0312 µg/mL
  fitness: 0.0253
[3]; first compound 0.75 µg/mL, partner 0.0625 µg/mL
  fitness: 0.0219
[3]; first compound 0.75 µg/mL, partner 0.125 µg/mL
  fitness: 0.0157
[3]; first compound 1.5 µg/mL, partner 0.0312 µg/mL
  fitness: 0.0473
[3]; first compound 1.5 µg/mL, partner 0.0625 µg/mL
  fitness: 0.0386
[3]; first compound 1.5 µg/mL, partner 0.125 µg/mL
  fitness: 0.0409

## CN(C)[C@@H]1C(O)=C(C(N)=O)C(=O)[C@@]2(O)C(O)=C3C(=O)c4c(O)ccc(Cl)c4[C@@](C)(O)[C@H]3C[C@@H]12 [Chlortetracycline] + CO/N=C(\C(=O)N[C@@H]1C(=O)N2C(C(=O)O)=C(COC(C)=O)CS[C@H]12)c1csc(N)n1 [Cefotaxime]
[1]; first compound 0.006 µg/mL, partner 0.039 µg/mL, one replicate
  fitness: 0.775
[1]; first compound 0.006 µg/mL, partner 0.078 µg/mL, one replicate
  fitness: 0.689
[1]; first compound 0.006 µg/mL, partner 0.156 µg/mL, one replicate
  fitness: 0.677
[1]; first compound 0.006 µg/mL, partner 0.312 µg/mL, one replicate
  fitness: 0.635
[1]; first compound 0.012 µg/mL, partner 0.039 µg/mL
  fitness: 0.533
[1]; first compound 0.012 µg/mL, partner 0.078 µg/mL
  fitness: 0.608
[1]; first compound 0.012 µg/mL, partner 0.156 µg/mL
  fitness: 0.561
[1]; first compound 0.012 µg/mL, partner 0.312 µg/mL
  fitness: 0.44
[1]; first compound 0.024 µg/mL, partner 0.312 µg/mL
  fitness: 0.271
[1]; first compound 0.048 µg/mL, partner 0.039 µg/mL
  fitness: 0.258
[1]; first compound 0.048 µg/mL, partner 0.078 µg/mL
  fitness: 0.137
[1]; first compound 0.048 µg/mL, partner 0.156 µg/mL
  fitness: 0.125
[1]; first compound 0.048 µg/mL, partner 0.312 µg/mL
  fitness: 0.108
[2]; first compound 0.0475 µg/mL, partner 0.00775 µg/mL, one replicate
  fitness: 0.783
[2]; first compound 0.0475 µg/mL, partner 0.0155 µg/mL, one replicate
  fitness: 0.597
[2]; first compound 0.0475 µg/mL, partner 0.031 µg/mL, one replicate
  fitness: 0.5
[2]; first compound 0.0475 µg/mL, partner 0.0625 µg/mL, one replicate
  fitness: 0.532
[2]; first compound 0.0475 µg/mL, partner 0.125 µg/mL, one replicate
  fitness: 0.381
[2]; first compound 0.0475 µg/mL, partner 0.25 µg/mL, one replicate
  fitness: 0.326
[2]; first compound 0.0475 µg/mL, partner 0.5 µg/mL
  fitness: 0.326
[2]; first compound 0.0475 µg/mL, partner 1 µg/mL
  fitness: 0.19
[2]; [4]
  fitness: 0.147
[2]; first compound 0.095 µg/mL, partner 0.00775 µg/mL, one replicate
  fitness: 0.703
[2]; first compound 0.095 µg/mL, partner 0.0155 µg/mL, one replicate
  fitness: 0.536
[2]; first compound 0.095 µg/mL, partner 0.031 µg/mL, one replicate
  fitness: 0.38
[2]; first compound 0.095 µg/mL, partner 0.0625 µg/mL, one replicate
  fitness: 0.458
[2]; first compound 0.095 µg/mL, partner 0.125 µg/mL, one replicate
  fitness: 0.283
[2]; first compound 0.095 µg/mL, partner 0.25 µg/mL, one replicate
  fitness: 0.186
[2]; first compound 0.095 µg/mL, partner 0.5 µg/mL
  fitness: 0.199
[2]; first compound 0.095 µg/mL, partner 1 µg/mL
  fitness: 0.0513
[2]; [5]
  fitness: 0.117
[2]; first compound 0.19 µg/mL, partner 0.00775 µg/mL, one replicate
  fitness: 0.413
[2]; first compound 0.19 µg/mL, partner 0.0155 µg/mL, one replicate
  fitness: 0.149
[2]; first compound 0.19 µg/mL, partner 0.031 µg/mL, one replicate
  fitness: 0.0377
[2]; first compound 0.19 µg/mL, partner 0.0625 µg/mL, one replicate
  fitness: 0.135
[2]; first compound 0.19 µg/mL, partner 0.125 µg/mL, one replicate
  fitness: 0.0644
[2]; first compound 0.19 µg/mL, partner 0.25 µg/mL, one replicate
  fitness: 0.06
[2]; first compound 0.19 µg/mL, partner 0.5 µg/mL
  fitness: 0.129
[2]; first compound 0.19 µg/mL, partner 1 µg/mL
  fitness: 0.0806
[2]; [6]
  fitness: 0.111
[3]; first compound 0.012 µg/mL, partner 0.0018 µg/mL
  fitness: 0.88
[3]; first compound 0.012 µg/mL, partner 0.0035 µg/mL
  fitness: 0.94
[3]; first compound 0.012 µg/mL, partner 0.007 µg/mL
  fitness: 0.885
[3]; first compound 0.024 µg/mL, partner 0.0018 µg/mL
  fitness: 0.664
[3]; first compound 0.024 µg/mL, partner 0.0035 µg/mL
  fitness: 0.641
[3]; first compound 0.024 µg/mL, partner 0.007 µg/mL
  fitness: 0.629
[3]; first compound 0.048 µg/mL, partner 0.0018 µg/mL
  fitness: 0.301
[3]; first compound 0.048 µg/mL, partner 0.0035 µg/mL
  fitness: 0.251
[3]; first compound 0.048 µg/mL, partner 0.007 µg/mL
  fitness: 0.238
[3]; first compound 0.375 µg/mL, partner 0.0018 µg/mL
  fitness: 0.0683
[3]; first compound 0.375 µg/mL, partner 0.0035 µg/mL
  fitness: 0.0612
[3]; first compound 0.375 µg/mL, partner 0.007 µg/mL
  fitness: 0.0585
[3]; first compound 0.75 µg/mL, partner 0.0018 µg/mL
  fitness: 0.086
[3]; first compound 0.75 µg/mL, partner 0.0035 µg/mL
  fitness: 0.0734
[3]; first compound 0.75 µg/mL, partner 0.007 µg/mL
  fitness: 0.0886
[3]; first compound 1.5 µg/mL, partner 0.0018 µg/mL
  fitness: 0.0498
[3]; first compound 1.5 µg/mL, partner 0.0035 µg/mL
  fitness: 0.0657
[3]; first compound 1.5 µg/mL, partner 0.007 µg/mL
  fitness: 0.0651
